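Compound exposure: 48 hours, 5 concentrations, 96-well plates. TGI: total growth inhibition.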
How the values were obtained:
Experiment in all cases: DTP human tumour cell line panel, 48 h
UO-31 renal = tested on: UO-31 renal
HL-60(TB) leukemia = tested on: HL-60(TB) leukemia
A549 NSCLC = tested on: A549 NSCLC
HCT-15 colon = tested on: HCT-15 colon
OVCAR-4 ovarian = tested on: OVCAR-4 ovarian
A498 renal = tested on: A498 renal
SK-OV-3 ovarian = tested on: SK-OV-3 ovarian
SNB-75 CNS = tested on: SNB-75 CNS
HOP-92 NSCLC = tested on: HOP-92 NSCLC
HCC-2998 colon = tested on: HCC-2998 colon
SK-MEL-5 melanoma = tested on: SK-MEL-5 melanoma
SN12C renal = tested on: SN12C renal
KM12 colon = tested on: KM12 colon
DLD-1 colon = tested on: DLD-1 colon
SF-295 CNS = tested on: SF-295 CNS
COLO 205 colon = tested on: COLO 205 colon
SF-539 CNS = tested on: SF-539 CNS
RPMI-8226 leukemia = tested on: RPMI-8226 leukemia
NCI-H23 lung = tested on: NCI-H23 lung
UACC-257 melanoma = tested on: UACC-257 melanoma

SMILES | TGI (UO-31 renal) [µM] | TGI (HL-60(TB) leukemia) [µM] | TGI (A549 NSCLC) [µM] | TGI (HCT-15 colon) [µM] | TGI (OVCAR-4 ovarian) [µM] | TGI (A498 renal) [µM] | TGI (SK-OV-3 ovarian) [µM] | TGI (SNB-75 CNS) [µM] | TGI (HOP-92 NSCLC) [µM] | TGI (HCC-2998 colon) [µM] | TGI (SK-MEL-5 melanoma) [µM] | TGI (SN12C renal) [µM] | TGI (KM12 colon) [µM] | TGI (DLD-1 colon) [µM] | TGI (SF-295 CNS) [µM] | TGI (COLO 205 colon) [µM] | TGI (SF-539 CNS) [µM] | TGI (RPMI-8226 leukemia) [µM] | TGI (NCI-H23 lung) [µM] | TGI (UACC-257 melanoma) [µM]
COC(=O)c1nc(-c2ccc3c(n2)C(=O)C(N)=C(OC)C3=O)c(N)c(-c2ccc(OC)c(OC)c2O)c1C | 2.46 | 6.32 | 2.76 | 2.68 | 3.06 | 3.17 | 3.73 | 3.73 | 5.79 | 0.221 | 1.96 | 2.69 | 6.13 | 3.42 | 2.02 | 3.61 | 1.39 | 3.6 | 1.38 | 2.09
O=C1c2ccccc2C(=O)c2c1ccc1c2N=C(c2ccc(F)cc2)CC(c2ccc(Cl)c(Cl)c2)N1 (stereo not given) | 23.5 | 35.9 | 47.6 | 19.8 | 37 | 54.9 | 48.9 | 40.2 | 90 | 27.8 | 31 | 32.4 | 19.4 | 31.8 | 28.6 | 33.4 | 34.9 | 19.3 | 33.4 | 50
C[C@@H]1C[C@]2(C[C@@H](C)[C@H]3C(C[C@@]4(C)CCC[C@@H]5C6=C[C@H](CCC34C)OC6=CC(=O)OC5(C)C)O2)OC1=O (stereo not given in full) | > 51.5 | > 51.5 | > 51.5 | > 51.5 | > 51.5 | > 51.5 | > 51.5 | 47.5 | > 51.5 | > 51.5 | > 51.5 | > 51.5 | > 51.5 | > 51.5 | > 51.5 | > 51.5 | > 51.5 | > 51.5 | > 51.5 | > 51.5

From PubChem BioAssay (NCI)
